Assay results reported in patent US20250009753A1, “METHODS FOR TREATING IMMUNE REFRACTORY LUNG CANCER” (Revolution Medicines, Inc., priority 2022, published 2025).

System: eLL2 KRASWT/G12C NRAS−/− A2 tumors
Test: Immune cell infiltration in tumors by flow cytometry
Format: in vivo, mouse
Conditions: 24 hours post 4 days of treatment, Compound A 200 mg/kg po qd, RMC-4550 30 mg/kg po qd, anti-PD-1 10 mg/kg ip qw
Description: Methods: Effects of Compound A (Ex. A556 of Table 1). dosed at 200 mg/kg po qd, RMC-4550 dosed at 30 mg/kg po qd, anti-PD-1 dosed at 10 mg/kg ip qw and the combination therapies on the immune cell infiltration in the eLL2 KRASWT/G12C NRAS−/− A2 tumors have been evaluated 24 hours post 4 days of treatment in 3 mice/group by flow cytometry. Tumor tissue was minced, processed with the Miltenyi Biotec Mouse Tumor Dissociation Kit or the Dri Tumor & Tissue Dissociation Reagent from BD Biosciences, and homogenized with the gentleMACS™ Dissociator. The cell suspension was incubated at 4° C. for 30 minutes with Mouse BD Fc Block (Clone 2.4G2 from BD Pharmingen), 10 minutes with Blue Dead Cell Stain Kit (from Invitrogen) and 30 min in cell staining buffer. Antibodies used targeted CD45 (Clone 30-F11 from BD Biosciences), CD19 (Clone 1D3 from BD Biosciences, CD3E (Clone145-2C11 from Biolegend), CD8b (Clone H35-17.2 from BD Biosciences), CD4 (Clone GK1.5 from Biolegend), CD11b (Clone M1/70 from Biolegend), F4/80 (Clone BM8 from Biolegend), Ly-6G (Clone 1A8 from BD Biosciences) and Ly-6C (Clone HK1.4 from Biolegend).

Cc1nc(N2CCC3(CC2)CO[C@@H](C)[C@H]3N)c(CO)nc1-c1cccc(Cl)c1Cl [RMC-4550]
Ly6G+ myeloid suppressor cells: significantly decreased
